Measurements taken from patent US9827219B2, “Compositions and methods for lowering levels of high-sensitivity C-reactive protein (HS-CRP) in a subject” (priority 2012, dated 2017).

What was measured:
[1] = system: Ox-LDL; test: ANCHOR study, oxidized LDL; assay type: in vivo, human; conditions: ANCHOR ITT, week 12
Description: Parameters (a)-(y) can be measured in accordance with any clinically acceptable methodology. For example, triglycerides, total cholesterol, HDL-C and fasting blood sugar can be sample from serum and analyzed using standard photometry techniques. VLDL-TG, LDL-C and VLDL-C can be calculated or determined using serum lipoprotein fractionation by preparative ultracentrifugation and subsequent quantitative analysis by refractometry or by analytic ultracentrifugal methodology. Apo A1, Apo B and hsCRP can be determined from serum using standard nephelometry techniques. Lipoprotein (a) can be determined from serum using standard turbidimetric immunoassay techniques. LDL particle number and particle size can be determined using nuclear magnetic resonance (NMR) spectrometry. Remnants lipoproteins and LDL-phospholipase A2 can be determined from EDTA plasma or serum and serum, respectively, using enzymatic immunoseparation techniques. Oxidized LDL, intercellular adhesion molecule-1 and interleukin-2 levels can be determined from serum using standard enzyme immunoassay techniques. These techniques are described in detail in standard textbooks, for example Tietz Fundamentals of Clinical Chemistry, 6th Ed. (Burtis, Ashwood and Borter Eds.), WB Saunders Company. […]

[2] = system: IL-6; test: ANCHOR study, IL-6; assay type: in vivo, human; conditions: ANCHOR ITT, week 12
Protocol: A multi-center, placebo-controlled, randomized, double-blind, 12-week study was performed to evaluate the efficacy and safety of >96% E-EPA in patients with fasting triglyceride levels ≧200 mg/dl and <500 mg/dl despite statin therapy (the mean of two qualifying entry values needed to be ≧185 mg/dl and at least one of the values needs to be ≧200 mg/dl). The primary objective of the study was to determine the efficacy of >96% E-EPA 2 g daily and 4 g daily, compared to placebo, in lowering fasting TG levels in patients with high risk for cardiovascular disease and with fasting TG levels ≧200 mg/dL and <500 mg/dL, despite treatment to LDL-C goal on statin therapy.
The population for this study was men and women >18 years of age with a body mass index ≦45 kg/m^2 with fasting TG levels greater than or equal to 200 mg/dl and less than 500 mg/dl and on a stable does of statin therapy (with or without ezetimibe). The statin must have been atorvostatin, rosuvastatin or simvastatin. The dose of statin must have been stable for ≧4 weeks prior to the LDL-C/TG baseline qualifying measurement for randomization. The statin dose was optimal such that the patients are at their LDL-C goal at the LDL-C/TG baseline qualifying measurements. The same statin at the same dose was continued until the study ended.
Approximately 648 patients were randomized at approximately 80 centers in the U.S. The study was a 18- to 20-week, Phase 3, multi-center study consisting of 2 study periods: (1) A 6- to 8-week screening period that included a diet and lifestyle stabilization, a non-statin lipid-altering treatment washout, and an LDL-C and TG qualifying period and (2) A 12-week, double-blind, randomized, placebo-controlled treatment period.
After confirmation of qualifying fasting LDL-C and TG values, eligible patients entered a 12-week, randomized, double-blind treatment period. At Visit 4 (Week 0), patients were randomly assigned to 1 of the following treatment groups: • >96% E-EPA 2 g daily, • >96% E-EPA 4 g daily, or • Placebo.
Approximately 216 patients per treatment group were randomized in this study. Stratification was by type of statin (atorvastatin, rosuvastatin or simvastatin), the presence of diabetes, and gender. The lower-efficacy statin regimen included administration of 5-10 mg of simvastatin per day; the medium-efficacy statin regimens included administration of 5-10 mg rosuvastatin per day, 10-20 mg of atorvastatin per day, 20-40 mg of simvastatin per day, or 10-20 mg of simvastatin and 5-10 mg of ezetimibe per day; and the higher-efficacy statin regimens included administration of 20-40 mg of rosuvastatin per day, 40-80 mg of atorvastatin per day, 80 mg of simvastatin per day, or 40-80 mg of simvastatin and 5-10 mg of ezetimibe per day. […]

## CC/C=C\C/C=C\C/C=C\C/C=C\C/C=C\CCCC(=O)OCC [AMR101, all-cis eicosa-5,8,11,14,17-pentaenoic acid ethyl ester]
[1]; 2 g/day
  Ox-LDL change from baseline (median): 2.6%
[1]; 4 g/day
  Ox-LDL change from baseline (median): −4.8%
[2]; 2 g/day
  IL-6 change from baseline (median): 6.9%
  IL-6 end-of-treatment value (median): 2.7 pg/mL
[2]; 4 g/day
  IL-6 change from baseline (median): 3.1%
  IL-6 end-of-treatment value (median): 2.6 pg/mL
